Activity calls are given as the source filed them. The calls are words filed in the database; no cut-off is given here.

Data set [1] in a line: Partition coefficient, Log P of the compound. The class given is physicochemical. Conditions: octanol/water.
Data set [2] deals with K562. The data set can be described thus: Photocytotoxicity against human K562 cells at 2 uM. The format is functional, cell-based.
Data set [3] has as its system K562. The data set can be described thus: Cytotoxicity against human K562 cells at 2 uM after 24 hrs in dark. The class given is functional, cell-based.

Compound `CN(CCCN)CCCCNCCCCNC(=O)c1ccc(-c2c3nc(c(-c4ccc(C(=O)NCCCCNCCCCN(C)CCCN)cc4)c4ccc([nH]4)c(-c4ccc(C(=O)NCCCCNCCCN(C)CCCCN)cc4)c4ccc([nH]4)c(-c4ccc(C(=O)NCCCCNCCCN(C)CCCCN)cc4)c4nc2CC4)C=C3)cc1` yielded a logP in data set [1] of -1.87.

With `C=Cc1c(C)c2cc3nc(c(CC(=O)NCCCCNCCCN(C)CCCCNCCCN)c4nc(cc5[nH]c(cc1[nH]2)c(C)c5CC)C(C)=C4C(=O)NCCCCNCCCN(C)CCCCNCCCN)[C@@H](CCC(=O)NCCNCCCN(C)CCCCNCCCN)[C@@H]3C`, the logP in data set [1] was -0.83. For the same compound, the result in the data set on K562 [2] and in the data set with K562 [3] was Active.

Take `CN(CCCCNCCCCNC(=O)c1ccc(-c2c3nc(c(-c4ccc(C(=O)NCCCCNCCCCN(C)CCCNCCCN)cc4)c4ccc([nH]4)c(-c4ccc(C(=O)NCCCCNCCCN(C)CCCCNCCCN)cc4)c4ccc([nH]4)c(-c4ccc(C(=O)NCCCCNCCCN(C)CCCCNCCCN)cc4)c4nc2CC4)C=C3)cc1)CCCNCCCN`: the logP in data set [1] is -1.98.

`C=Cc1c(C)c2cc3nc(c(CC(=O)NCCCCNCCCN(C)CCCCN)c4nc(cc5[nH]c(cc1[nH]2)c(C)c5CC)C(C)=C4C(=O)NCCCCNCCCN(C)CCCCN)[C@@H](CCC(=O)NCCNCCCN(C)CCCCN)[C@@H]3C` came in with a logP in data set [1] of -0.45. The outcome with K562 [2] and in the data set on K562 [3] was Active.

By logP is commonly meant the decadic logarithm of the partition coefficient of the neutral form, usually between octanol and water. The low end stands for a more hydrophilic compound, the high end for a more lipophilic compound.

(Values after ChEMBL document CHEMBL1148510, “Synthesis and photocytotoxic activity of new chlorin-polyamine conjugates” (Bioorg Med Chem Lett, 2006).)
